Test results taken from US7271239B2, “D-isomers of antimicrobial peptide” (The Research Foundation of State University of New York, priority 2004, dated 2007).
≈ marks a conversion by molar mass, not a printed value. Like-named read-outs stand apart in the source and are kept apart here. Where a SMILES comes first, the peptide text is derived from it.

Key:
S. mutans = experiment: microbe, parasite or virus in culture; conditions: median of four strains
Source text: (§1) The bacteria used in this study included Streptococcus mutans ATCC10449, Streptococcus mutans AU 159, Streptococcus mutans GS-5, Streptococcus mutans GS-5 mutant (^gtf BCD), Streptococcus gordonii Challis, Porphyromonas gingivalis W50, Porphyromonas gingivalis 381, A. actinomycetemcomitans NCTC 9710, Pseudomonas aeruginosa ATCC 17648, and Escherichia coli HB101. One quarter strength (25%) of brain heart infusion broth (BHI, DIFCO Laboratories, Detroit, Mich.) was used for the growth of S. mutans, S. gordonii, A. actinomycetemcomitans, Ps. aeruginosa, and E. coli. For growth of P. gingivalis, tryptic soy broth-yeast extract medium (TSBY, DIFCO Laboratories, Detroit, Mich.) supplemented with cysteine hydrochloride (0.05%), menadione (0.02 μg/ml), hemin (5 μg/ml), and potassium nitrate (0.02%) was used. All bacteria were cultured at 37° C.; Ps. aeruginosa and E. coli were grown aerobically, and the other bacteria, anaerobically. To prepare bacterial cell suspension for antibacterial activity assays, each overnight culture was harvested by centrifuge (3783 g, 10 min), washed once with 10 mM sodium phosphate-buffered saline (PBS, pH 7.2), resuspended in PBS and adjusted to a concentration of 1×10^6 cells/mL.
(§2) MICs of the peptides were determined by broth microdilution method as previously described (5). Briefly, two-fold serial dilutions of each peptide were prepared with 25% BHI medium at a volume of 200 μl per well in 96-well flat-bottom microtiter plates (Costar, Cambridge, Mass.). The final concentration of the peptides ranged from 0.78 to 100 μM, and chlorhexidine (CHX), used as a positive control, from 20 to 0.16 μM (10 to 0.078 μg/mL). The microtiter plate was inoculated with bacterial cell suspension with final concentration of 5×10^6 CFU/mL for P. gingivalis and 5×10^5 CFU/mL for the other bacterial species. After incubation at 37° C. for 48 h, the absorbance was measured at 595 nm by using a microplate reader (Model 3550, Bio-Rad, Japan) to assess the cell growth. […] The MIC value represents the median of at least three independent experiments. The minimal bactericidal concentration (MBC) was determined as follows. Aliquot (100 μl) of cell suspension was taken from two wells above MIC, centrifuged, and washed three times with PBS. Then each cell suspension was plated on TSBY agar plate, and bacterial cells were enumerated after incubation at 37° C. for 48 h. The MBC was defined as the lowest concentration of the peptide at which more than 99.9% of cells were killed compared to non-treated control.

S. gordonii Challis = experiment: microbe, parasite or virus in culture; type: cell-based, Streptococcus gordonii
Source text: as §1, §2

[1] = test system: A. actinomycetemcomitans NCTC 9710; experiment: microbe, parasite or virus in culture; type: cell-based
Source text: as §1, §2

P. gingivalis = experiment: microbe, parasite or virus in culture; type: cell-based, Porphyromonas gingivalis
Source text: as §1, §2

[2] = test system: Ps. aeruginosa ATCC 17648; experiment: microbe, parasite or virus in culture; type: cell-based, Pseudomonas aeruginosa; conditions: ATCC 17648
Source text: as §1, §2

E. coli HB101 = experiment: microbe, parasite or virus in culture; type: cell-based, Escherichia coli
Source text: as §1, §2

S. mutans GS-5 = experiment: Time-kill assay; type: cell-based, Streptococcus mutans; conditions: after 4 h incubation, each agent at its MIC
Description: FIG. 10. Time-Killing curves for S. mutans. […] Control (▪), MUC7 12-mer-L (Δ), MUC7 12-mer-D (□), MUC7 20-mer (▴), Hsn5 12-mer (×), magainin II (●), chlorhexidine (◯).
For the peptides MUC7 12-mer-L, MUC7 12-mer-D, and MUC7 20-mer, time-kill kinetic studies against S. mutans were performed by the broth macrodilution method. S. mutans GS-5 (1×10^6 CFU/ml) and antibacterial agens (find concentrations of 12.5 μM for each peptide, and 2 μM for CHX; their MICs) were incubated in 25% BHI at 37° C. At the time of 0, 1, 2, 4, 8, and 24 h, samples were taken and viable counts determined as follows: The samples were serially diluted (10^−1 to 10^−4) in sterile 10 mM PBS (pH 7.2) and 50 μl aliquots were plated onto TSBY agar. The plates were incubated anaerobically at 37° C. for 48 h, followed by enumerating the CFU. Killing curves were constructed by plotting the log10 CFU per milliliter versus time over 24 h. All assays were done in duplicate on at least two occasions.

S. mutans GS-5 biofilm = type: cell-based, Streptococcus mutans
Description: FIG. 11. Effect of peptides on the biofilm formation of S. mutans. The bacterial cells (5×10^5 cfu ml^−1) were inoculated in 96-well microtiter plate containing 25% BHIS medium with different concentration of each agent. Culture without agent was used as no treatment control. After incubation at 37° C. for 24 h, absorbance at 595 nm was recorded to assess the cell growth. Biofilm assay was performed by discarding the supernatants, washing with PBS, fixing with methanol, and staining with CV. The absorbance at 570 nm was recorded to assess the amount of biofilm. The activity was expressed as % of control. Data represents mean and SD of two independent tests with duplicates for each. Empty bar: growth, solid bar: biofilm.
The effect of the peptides on S. mutans in biofilm formation was examined by the microdilution method. This method is similar to the MIC assay for planktonic cells. Two-fold serial dilutions of each peptide were prepared in wells of polystyrene microtiter plates (Microtest tissue culture plate, 96 well, Falcon, Becton Dickinson and Company, N.J.) containing 25% BHI medium supplemented with 1% sucrose (BHIS) at a volume of 200 μl per well. The final concentration of the peptide ranged from 0.78 to 100 μM for each peptide. Chlorhexidine (CHX, 0.078 to 10 μg/mL) was used as the positive control, the medium without drug as the non-treated control, and the medium alone as the blank control. The cells suspension of S. mutans GS-5 was prepared as describe in MIC assay and 20 μl aliquot (final concentration of cells 5×10^5 CFU/mL) was inoculated to the wells of polystyrene microtiter plates. After incubation at 37° C. for 20 h, the culture supernatants from each well were decanted and planktonic cells were removed by washing with PBS, pH 7.2. The biofilm was fixed with methanol for 15 min and then air dried at room temperature. The biofilm was then stained with 0.1% (wt/vol) crystal violet (Sigma) for 5 min. and rinsed thoroughly with water until the control wells appeared colorless. Biofilm formation was quantified by the addition of 200 μl of 95% ethanol to each crystal violet-stained well. The plate was rocked at room temperature for 30 min and the absorbance at 595 nm (A595 nm) was determined with a microplate reader (BioRad Model 3550 Microplate Reader). Percentage of inhibition was calculated with the equation: (1−A595 nm of the test/A595nm of non-treated control)×100.

[3] = test system: S. mutans GS-5 1-day biofilm; type: cell-based, Streptococcus mutans
Description: FIG. 12. Effect of peptides on 1-day biofilm of S. mutans. One-day mature biofilm was prepared as described above. BHI medium supplemented with 1% sucrose (BHIS) with peptides, prepared in another microtiter plate, was then transferred to the biofilm plate. After further incubation at 37° C. for 24 h, the biofilm was fixed, stained, and quantified as describe above. Data represents mean and SD of two independent tests performed in duplicated. Empty bar: growth, solid bar: biofilm.
To examine the effects of the peptides on 1-day mature biofilm, S. mutans GS-5 was inoculated into the wells of another polystyrene microtiter plate containing BHIS at a volume of 200 μl per well. After incubation at 37° C. for 24 h, the culture supernatants from each well were decanted and planktonic cells were removed by washing with PBS. BHIS containing 0.78 to 100 μM peptides, prepared in another microtiter plate, was then transferred to the 1-day biofilm plate, and further incubated at 37° C. for one day. The biofilm was fixed, stained, and quantified as describe above.

In the case of `CC[C@H](C)[C@H](NC(=O)[C@H](Cc1ccccc1)NC(=O)[C@@H]1CCCN1C(=O)[C@H](CCCCN)NC(=O)[C@H](CCC(N)=O)NC(=O)[C@H](Cc1c[nH]cn1)NC(=O)[C@H](C)NC(=O)[C@@H](N)CC(C)C)C(=O)N[C@@H](CCCNC(=N)N)C(=O)N[C@@H](CCCCN)C(=O)N[C@@H](CO)C(=O)N[C@@H](Cc1ccc(O)cc1)C(=O)N[C@@H](CCCCN)C(=O)N[C@@H](CS)C(=O)N[C@@H](CC(C)C)C(=O)N[C@@H](Cc1c[nH]cn1)C(=O)N[C@@H](CCCCN)C(=O)N[C@@H](CCCNC(=N)N)C(=O)N[C@@H](CS)C(=O)N[C@@H](CCCNC(=N)N)C(=O)O` [MUC7 20-mer] (H-LAHQKPFIRKSYKCLHKRCR-OH; N-terminus and C-terminus assumed), the “MBC (μM)” value (S. mutans) is reported as 12.5 µM (≈ 31.4 µg/mL), the “MBC (μg/ml)” value (S. mutans) is reported as 31.4 µg/mL (≈ 12.5 µM) and the “MBC (μM)” value (S. gordonii Challis) is reported as 25.0 µM (≈ 62.8 µg/mL). The “MBC (μg/ml)” value (S. gordonii Challis) was 62.8 µg/mL (≈ 25 µM), the “MIC (μM)” value (S. gordonii Challis) was 12.5 µM (≈ 31.4 µg/mL) and the “MIC (μg/ml)” value (S. gordonii Challis) was 31.4 µg/mL (≈ 12.5 µM). For the same compound, the “MBC (μg/ml)” value [1] was 251.3 µg/mL (≈ 100 µM), the “MIC (μg/ml)” value [1] was 251.3 µg/mL (≈ 100 µM) and the “MBC (μM)” value ([1]; NCTC 9710) was 100.0 µM (≈ 251 µg/mL). For the same compound, the “MIC (μM)” value ([1]; NCTC 9710) was 100.0 µM (≈ 251 µg/mL), the “MIC (μM)” value (P. gingivalis) was over 100 µM and the “MIC (μg/ml)” value (P. gingivalis) was over 251 µg/mL. The “MBC (μM)” value [2] was over 100 µM, the “MBC (μg/ml)” value [2] was over 251 µg/mL and the “MIC (μM)” value [2] was over 100 µM. The “MIC (μg/ml)” value [2] was over 251 µg/mL, the “MBC (μM)” value (E. coli HB101) was 100.0 µM (≈ 251 µg/mL) and the “MIC (μM)” value (E. coli HB101) was 100.0 µM (≈ 251 µg/mL). For the same compound, the “reduction of the viable counts of S. mutans” value (S. mutans GS-5) was 2 log10, the “MBIC50” value (S. mutans GS-5 biofilm) was 15.5 µg/mL and the “MBIC50” value (S. mutans GS-5 biofilm; GS-5 biofilm, 24 h) was 6.25 µM. For the same compound, the “MBEC50 (μg/ml)” value [3] was 62 µg/mL, the “MBEC50 (μM)” value ([3]; GS-5 1-day biofilm, 24 h) was 25 µM and the “eradication of 1-day developed biofilm” value ([3]; at or more than MBEC50) was “reduction of biofilm was observed”.
